Positions count from the first letter of the chain named. Each block holds one molecule with its values, some of them ahead of it.
Experiments:
SULT2A8 [1] = target: T1, SULT2A8 (Mus musculus, UniProt Q8BGL3); experiment: X-ray crystal structure; assay type: binding; conditions: pH 5.1
T1 construct: truncated, residues 4-282 (first three residues removed), N-terminal GST tag cleaved with PreScission protease (pGEX-6P-3); E. coli BL21(DE3), purified from inclusion bodies; homodimer in crystal
T1 sequence (Q8BGL3 4-282): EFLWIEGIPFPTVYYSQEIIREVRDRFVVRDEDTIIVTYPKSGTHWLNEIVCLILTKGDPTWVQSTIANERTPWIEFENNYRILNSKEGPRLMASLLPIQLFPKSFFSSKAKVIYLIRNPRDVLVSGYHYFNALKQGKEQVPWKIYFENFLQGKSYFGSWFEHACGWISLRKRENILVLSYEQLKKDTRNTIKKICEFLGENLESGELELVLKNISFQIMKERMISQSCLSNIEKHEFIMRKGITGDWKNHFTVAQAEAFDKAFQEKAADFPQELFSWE

SULT2A8 [2] = target: T1, SULT2A8; experiment: thermal shift assay (Thermofluor); assay type: binding; conditions: 20 mM Hepes pH 8.0, 150 mM NaCl, 4 mM DTT, ligand 250 mM [sic]
SULT2A8 [3] = target: T1, SULT2A8; experiment: HPLC of PAP generated; assay type: biochemical; conditions: 50 μM PAPS, 100 μM bile acid, 2.5 mM MgCl2, pH 5.5 or 7.5, 37°C
SULT2A8 [4] = target: T2, SULT2A8 (Mus musculus, UniProt Q8BGL3, L99V); experiment: thermal shift assay (Thermofluor); assay type: binding; conditions: 20 mM Hepes pH 8.0, 150 mM NaCl, 4 mM DTT; ligand 250 mM [sic]
T2 construct: truncated, residues 4-282 (first three residues removed), N-terminal GST tag cleaved with PreScission protease (pGEX-6P-3); E. coli BL21(DE3), purified from inclusion bodies; homodimer in crystal
T2 sequence (Q8BGL3 4-282 L99V): T1 sequence (Q8BGL3 4-282) with L96V

SULT2A8 [5] = target: T3, SULT2A8 (Mus musculus, UniProt Q8BGL3, N72W); experiment: thermal shift assay (Thermofluor); assay type: binding; conditions: 20 mM Hepes pH 8.0, 150 mM NaCl, 4 mM DTT; ligand 250 mM [sic]
T3 construct: truncated, residues 4-282 (first three residues removed), N-terminal GST tag cleaved with PreScission protease (pGEX-6P-3); E. coli BL21(DE3), purified from inclusion bodies; homodimer in crystal
T3 sequence (Q8BGL3 4-282 N72W): T1 sequence (Q8BGL3 4-282) with N69W

SULT2A8 [6] = target: T4, SULT2A8 (Mus musculus, UniProt Q8BGL3, H48T); experiment: thermal shift assay (Thermofluor); assay type: binding; conditions: 20 mM Hepes pH 8.0, 150 mM NaCl, 4 mM DTT; ligand 250 mM [sic]
T4 construct: truncated, residues 4-282 (first three residues removed), N-terminal GST tag cleaved with PreScission protease (pGEX-6P-3); E. coli BL21(DE3), purified from inclusion bodies; homodimer in crystal
T4 sequence (Q8BGL3 4-282 H48T): T1 sequence (Q8BGL3 4-282) with H45T

SULT2A8 [7] = target: T5, SULT2A8 (Mus musculus, UniProt Q8BGL3, L99T); experiment: thermal shift assay (Thermofluor); assay type: binding; conditions: 20 mM Hepes pH 8.0, 150 mM NaCl, 4 mM DTT; ligand 250 mM [sic]
T5 construct: truncated, residues 4-282 (first three residues removed), N-terminal GST tag cleaved with PreScission protease (pGEX-6P-3); E. coli BL21(DE3), purified from inclusion bodies; homodimer in crystal
T5 sequence (Q8BGL3 4-282 L99T): T1 sequence (Q8BGL3 4-282) with L96T

[8] = target: the molecule itself; experiment: crystal structure; SULT2A8 (4-282) cocrystallised with PAP and CA, pH 5.1, 16°C; space group P4(2), two copies per asymmetric unit; dimerization read from analysis of the crystal packing

Molecule: C[C@H](CCC(=O)O)[C@H]1CC[C@H]2[C@@H]3[C@H](O)C[C@@H]4C[C@H](O)CC[C@]4(C)[C@H]3C[C@H](O)[C@]12C [CA]
X-ray crystal structure, 2.5 A (SULT2A8 [1]; co-crystal with PAP, substrate pocket): SULT2A8 was cocrystallized with PAP and its native substrate CA

Molecule: C[C@H](CCC(=O)O)[C@H]1CC[C@H]2[C@@H]3[C@H](O)C[C@@H]4C[C@H](O)CC[C@]4(C)[C@H]3CC[C@]12C [Na CDC]
Tm (SULT2A8 [2]): Na CDC, or sodium taurochenodeoxycholate) were added

Molecule: C[C@H](CCC(=O)O)[C@H]1CC[C@H]2[C@@H]3[C@H](O)C[C@@H]4C[C@H](O)CC[C@]4(C)[C@H]3C[C@H](O)[C@]12C [Na C]
Tm (SULT2A8 [2]; with PAP): Tm values were further increased when both PAP and native substrates (Na C, Na T-C

Molecule: C[C@H](CCC(=O)NCCS(=O)(=O)O)[C@H]1CC[C@H]2[C@@H]3[C@H](O)C[C@@H]4C[C@H](O)CC[C@]4(C)[C@H]3CC[C@]12C [Na T-CDC]
Tm (SULT2A8 [2]): Na CDC, or sodium taurochenodeoxycholate) were added

Molecule: Nc1ncnc2c1ncn2[C@@H]1O[C@H](COP(=O)(O)OS(=O)(=O)O)[C@@H](OP(=O)(O)O)[C@H]1O [PAPS]
HPLC of PAP generated (SULT2A8 [3]): quantification of PAP generated from the sulfonation of substrates

Tm (SULT2A8 [2]): from 54 to 61 °C
Molecule: Nc1ncnc2c1ncn2[C@@H]1O[C@H](COP(=O)(O)O)[C@@H](OP(=O)(O)O)[C@H]1O [PAP]
X-ray crystal structure, 2.5 A (SULT2A8 [1]; co-crystal with cholic acid, PAPS binding pocket, cofactor product/analogue): SULT2A8 protein was cocrystallized with PAP and CA
Tm (SULT2A8 [4]): Tm values of these mutants were significantly increased when PAP was included
Tm (SULT2A8 [5]): the Tm value of N72W was increased when PAP was added
Tm (SULT2A8 [6]): Tm values of these mutants were significantly increased when PAP was included
Tm (SULT2A8 [7]): Tm values of these mutants were significantly increased when PAP was included

B1: mouse cytosolic sulfotransferase SULT2A8 (residues 4-282) (enzyme, UniProt Q8BGL3 4-282, looked up)
chain: T1 sequence (Q8BGL3 4-282)
notes: Sulfotransferase 2A8 (SULT2A8), mouse, residues 4-282 (first three N-terminal residues removed), cloned in pGEX-6P-3 from pRSET-SULT2A8; Crystallised with the small molecules PAP and cholic acid; two copies per asymmetric unit; also called mSULT2A8; SULT2A8 WT; source: E. coli BL21(DE3), purified from inclusion bodies (Glutathione Sepharose 4B, PreScission cleavage, Superdex 75); not shown: GST, …
binding result [8]: binds

Reference: publication PMC8134075, “Structure of mouse cytosolic sulfotransferase SULT2A8 provides insight into sulfonation of 7α-hydroxyl bile acids” (Journal of Lipid Research, 2021)
